Measurements as given in US20230192705A1, “SHP2 INHIBITORS, COMPOSITIONS AND USES THEREOF” (Betta Pharmaceuticals Co., Ltd, priority 2020, published 2023).

Biological target: T1, SHP2 (Homo sapiens, UniProt Q06124)
T1 sequence (Q06124 1-593): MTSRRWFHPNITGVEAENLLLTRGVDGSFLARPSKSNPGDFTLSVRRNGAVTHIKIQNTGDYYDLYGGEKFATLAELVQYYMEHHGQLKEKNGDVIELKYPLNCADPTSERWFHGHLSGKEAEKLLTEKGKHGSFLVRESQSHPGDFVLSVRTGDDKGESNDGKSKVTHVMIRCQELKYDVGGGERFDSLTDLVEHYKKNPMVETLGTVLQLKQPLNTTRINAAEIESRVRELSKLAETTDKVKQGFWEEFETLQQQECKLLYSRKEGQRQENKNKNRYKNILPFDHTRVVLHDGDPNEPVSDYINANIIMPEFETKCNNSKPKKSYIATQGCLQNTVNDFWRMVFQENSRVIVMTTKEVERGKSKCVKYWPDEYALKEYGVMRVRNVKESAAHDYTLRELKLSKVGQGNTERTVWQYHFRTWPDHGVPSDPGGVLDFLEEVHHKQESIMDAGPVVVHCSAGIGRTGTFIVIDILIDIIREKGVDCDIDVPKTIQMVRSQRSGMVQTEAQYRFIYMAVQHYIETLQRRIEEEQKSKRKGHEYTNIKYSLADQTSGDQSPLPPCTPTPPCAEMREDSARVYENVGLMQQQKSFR
Assay: SHP2 allosteric inhibitor enzyme activity assay (DiFMUP fluorescence)
Assay type: biochemical
Settings: class symbols
Source text: SHP2 is activated by the binding of a bis-tyrosyl-phosphorylated peptide to its Src homologous 2 (SH2) domain. This subsequent activation step leads to the release of the automatic inhibition interface of SHP2, which in turn activates the SHP2 protein tyrosine phosphatase (PTP) and can be used for substrate recognition and reaction catalysis. The catalytic activity of SHP2 was monitored using the alternative DiFMUP in a rapid fluorescence assay format.
Assay procedures are as follows:
(1) Compound Formulation:
The compound of the present invention (10 mM stock solution) was diluted to a suitable multiple with 100% DMSO and assay buffer, and the final test concentration of the compound of the present invention was 1 μM, 0.333 μM, 0.111 μM, 0.0370 μM, 0.0124 μM, 0.00412 μM, 0.00137 μM, 0.00046 μM, 0.00015 μM, 0.00 μM;
(2) Preparation of Enzyme Reaction Working Fluid:
SHP2 enzyme activity was performed using a final reaction volume of 50 μL and the following assay buffer conditions in 96-well black polystyrene plates (flat bottom, low flange, non-bonding surface) (Perki Elmer, Cat #6005270) at room temperature: 60 mM HEPES, 75 mM NaCl, 75 mM KCl, 0.05% BRIJ-35, 1 mM EDTA, 5 mM DTT.
(3) Enzyme Catalytic Reaction and Data Monitoring:
Compounds of the present invention were added to the corresponding 96-well plates, and no compound and enzyme were provided as blank test wells. SHP2 Activating Peptide (IRS1_pY1172 (dPEG8)pY1222) was placed on ice for melting, and 0.5 μM was added per well, then 0.2 ng SHP2 protein samples were added to corresponding well plates, and incubated at room temperature for 1 hour. Substrate DiFMUP (Invitrogen, Cat #D6567) was added to the reaction at room temperature for 1 hour. Fluorescence signals were monitored using an enzyme reader (Envision, Perki Elmer) using excitation wavelengths and emission wavelengths of 340 nm and 450 nm, respectively.
Inhibition %=[1−(Conversion_sample−Conversion_min)/(Conversion_max−Conversion_min)]*100% Calculation formula: […]
where: Conversion_sample is the mean reading of the sample wells; Conversion_min is the mean reading of blank control wells, representing the reading of the wells without enzyme; Conversion_max is the mean of positive control wells, representing the reading of the wells without inhibitor.
The dose-response curve is fitted with GraphPad Prism software and IC50 was calculated by the “log[inhibitor] vs. response-variable slope” program.

IC50 [nM] | Structure (SMILES)
≤ 20 | N[C@@H]1c2ccccc2CC12CCN(c1nc3[nH]nc(-c4cc(=O)oc5ccccc45)c3c(=O)[nH]1)CC2 [Example 174, (S)-6-(1-amino-1,3-dihydrospiro[indene-2,4′-piperidin]-1′-yl)-3-(2-oxo-2H-chromen-4-yl)-1,5-dihydro-4H-pyrazolo[3,4-d]pyrimidin-4-one]
≤ 20 | CC1(C)C=C(c2n[nH]c3nc(N4CCC5(CC4)Cc4ccccc4[C@H]5N)[nH]c(=O)c23)c2cnc(C(F)(F)F)nc2C1 [Example 146, (S)-6-(l-amino-1,3-dihydrospiro[indene-2,4'-piperidin]-1′-yl)-3-(7,7-dimethyl-2-(trifluoromethyl)-7,8-dihydroquinazolin-5-yl)-1,5-dihydro-4H-pyrazolo[3,4-d]pyrimidin-4-one]
≤ 20 | N[C@@H]1c2ccccc2CC12CCN(c1nc3[nH]nc(C4=CCc5ccccc54)c3c(=O)[nH]1)CC2 [Example 172, (S)-6-(1-amino-1,3-dihydrospiro[indene-2,4′-piperidin]-1′-yl)-3-(1H-inden-3-yl)-1,5-dihydro-4H-pyrazolo[3,4-d]pyrimidin-4-one]
> 60 | C[C@@H]1OCC2(CCN(c3nc4[nH]nc(C5(c6ccccc6C(F)(F)F)CC5)c4c(=O)[nH]3)CC2)[C@@H]1N [Example 298, 6-((3S,4S)-4-amino-3-methyl-2-oxa-8-azaspiro[4.5]decan-8-yl)-3-(1-(2-(trifluoromethyl)phenyl)cyclopropyl)-1,5-dihydro-4H-pyrazolo[3,4-d]pyrimidin-4-one]
20 to 60 | N[C@@H]1c2ccccc2CC12CCN(c1nc3[nH]nc(C4(c5ccc(Cl)nn5)CC4)c3c(=O)[nH]1)CC2 [Example 69, (S)-6-(1-amino-1,3-dihydrospiro[indene-2,4′-piperidin]-1′-yl)-3-(1-(6-chloropyridazin-3-yl)cyclopropyl)-1,5-dihydro-4H-pyrazolo[3,4-d]pyrimidin-4-one]
≤ 20 | N[C@@H]1c2ccccc2CC12CCN(c1nc3[nH]nc(C4(c5ccnc(C(F)(F)F)c5)CC4)c3c(=O)[nH]1)CC2 [Example 27, (S)-6-(1-amino-1,3-dihydrospiro[indene-2,4′-piperidin]-1′-yl)-3-(1-(2-(trifluoromethyl)pyridin-4-yl)cyclopropyl)-1,5-dihydro-4H-pyrazolo[3,4-d]pyrimidin-4-one]
≤ 20 | N[C@@H]1c2ccccc2CC12CCN(c1nc3[nH]nc(C4(c5ccccc5F)CC4)c3c(=O)[nH]1)CC2 [Example 220, (S)-6-(1-amino-1,3-dihydrospiro[indene-2,4′-piperidin]-1′-yl)-3-(1-(2-fluorophenyl)cyclopropyl)-1,5-dihydro-4H-pyrazolo[3,4-d]pyrimidin-4-one]
20 to 60 | C[C@@H]1OCC2(CCN(c3nc4[nH]nc(C5(c6cccc(Cl)c6Cl)CC5)c4c(=O)[nH]3)CC2)[C@@H]1N [Example 309, 6-((3S,4S)-4-amino-3-methyl-2-oxa-8-azaspiro[4.5]decan-8-yl)-3-(1-(2,3-dichlorophenyl)cyclopropyl)-1,5-dihydro-4H-pyrazolo[3,4-d]pyrimidin-4-one]
≤ 20 | COc1nccc(C2(c3n[nH]c4nc(N5CCC6(CC5)Cc5ccccc5[C@H]6N)[nH]c(=O)c34)CC2)c1Cl [Example 62, (S)-6-(1-amino-1,3-dihydrospiro[indene-2,4′-piperidin]-1′-yl)-3-(1-(3-chloro-2-methoxypyridin-4-yl)cyclopropyl)-1,5-dihydro-4H-pyrazolo[3,4-d]pyrimidin-4-one]
≤ 20 | N[C@@H]1c2ccccc2CC12CCN(c1nc3[nH]nc(C4(c5cccc(Cl)c5Cl)CC4)c3c(=O)[nH]1)CC2 [Example 49, (S)-6-(1-amino-1,3-dihydrospiro[indene-2,4′-piperidin]-1′-yl)-3-(1-(2,3-dichlorophenyl)cyclopropyl)-1,5-dihydro-4H-pyrazolo[3,4-d]pyrimidin-4-one]
≤ 20 | N[C@@H]1c2ccccc2CC12CCN(c1nc3[nH]nc(C4(c5cccs5)CCC4)c3c(=O)[nH]1)CC2 [Example 94, (S)-6-(1-amino-1,3-dihydrospiro[indene-2,4′-piperidin]-1′-yl)-3-(1-(thiophen-2-yl)cyclobutyl)-1,5-dihydro-4H-pyrazolo[3,4-d]pyrimidin-4-one]
≤ 20 | CN1c2ccccc2C(c2n[nH]c3nc(N4CCC5(CC4)Cc4ccccc4[C@H]5N)[nH]c(=O)c23)=CS1(=O)=O [Example 184, (S)-6-(1-amino-1,3-dihydrospiro[indene-2,4′-piperidin]-1′-yl)-3-(1-methyl-2,2-dioxido-1H-benzo[c][1,2]thiazin-4-yl)-1,5-dihydro-4H-pyrazolo[3,4-d]pyrimidin-4-one]
20 to 60 | C[C@@H]1OCC2(CCN(c3nc4[nH]nc(C5(c6ccc7c(c6)OCO7)CC5)c4c(=O)[nH]3)CC2)[C@@H]1N [Example 286, 6-((3S,4S)-4-amino-3-methyl-2-oxa-8-azaspiro[4.5]decan-8-yl)-3-(1-(benzo[d][1,3]dioxol-5-yl)cyclopropyl)-1,5-dihydro-4H-pyrazolo[3,4-d]pyrimidin-4-one]
20 to 60 | C[C@@H]1OCC2(CCN(c3nc4[nH]nc(C5(c6ccc(C#N)cc6)CC5)c4c(=O)[nH]3)CC2)[C@@H]1N [Example 315, 4-(1-(6-((3S,4S)-4-amino-3-methyl-2-oxa-8-azaspiro[4.5]decan-8-yl)-4-oxo-4,5-dihydro-1H-pyrazolo[3,4-d]pyrimidin-3-yl)cyclopropyl)benzonitrile]
20 to 60 | N[C@@H]1c2ccccc2CC12CCN(c1nc3[nH]nc(C4=CCCc5nc(C6CC6)cc(C(F)(F)F)c54)c3c(=O)[nH]1)CC2 [Example 141, (S)-6-(1-amino-1,3-dihydrospiro[indene-2,4′-piperidin]-1′-yl)-3-(2-cyclopropyl-4-(trifluoromethyl)-7,8-dihydroquinolin-5-yl)-1,5-dihydro-4H-pyrazolo[3,4-d]pyrimidin-4-one]
20 to 60 | C[C@@H]1OCC2(CCN(c3nc4[nH]nc(C5(c6ncco6)CC5)c4c(=O)[nH]3)CC2)[C@@H]1N [Example 279, 6-((3S,4S)-4-amino-3-methyl-2-oxa-8-azaspiro[4.5]decan-8-yl)-3-(1-(oxazol-2-yl)cyclopropyl)-1,5-dihydro-4H-pyrazolo[3,4-d]pyrimidin-4-one]
≤ 20 | N#Cc1cccc(C2(c3n[nH]c4nc(N5CCC6(CC5)Cc5ccccc5[C@H]6N)[nH]c(=O)c34)CC2)c1 [Example 35, (S)-3-(1-(6-(1-amino-1,3-dihydrospiro[indene-2,4′-piperidin]-1′-yl)-4-oxo-4,5-dihydro-1H-pyrazolo[3,4-d]pyrimidin-3-yl)cyclopropyl)benzonitrile]
≤ 20 | CC1(C)NC=C(c2n[nH]c3nc(N4CCC5(CC4)Cc4ccccc4[C@H]5N)[nH]c(=O)c23)c2ccccc21 [Example 179, (S)-6-(1-amino-1,3-dihydrospiro[indene-2,4′-piperidin]-1′-yl)-3-(1,1-dimethyl-1,2-dihydroisoquinolin-4-yl)-1,5-dihydro-4H-pyrazolo[3,4-d]pyrimidin-4-one]
≤ 20 | CC1(C)Cc2ncccc2C(c2n[nH]c3nc(N4CCC5(CC4)Cc4ccccc4[C@H]5N)[nH]c(=O)c23)=C1F [Example 190, (S)-6-(1-amino-1,3-dihydrospiro[indene-2,4′-piperidin]-1′-yl)-3-(6-fluoro-7,7-dimethyl-7,8-dihydroquinolin-5-yl)-1,5-dihydro-4H-pyrazolo[3,4-d]pyrimidin-4-one]
≤ 20 | N[C@@H]1c2ccccc2CC12CCN(c1nc3[nH]nc(C4(c5ccco5)CC4)c3c(=O)[nH]1)CC2 [Example 256, (S)-6-(1-amino-1,3-dihydrospiro[indene-2,4′-piperidin]-1′-yl)-3-(1-(furan-2-yl)cyclopropyl)-1,5-dihydro-4H-pyrazolo[3,4-d]pyrimidin-4-one]
